Measurements from the supplement of paper PMC13380429.

How the values were obtained:
Conditions in all cases: 72 h
Caco-2 [1] = assay: cell viability relative to DMSO; higher = less toxic
Calu-3 [2] = assay: as above
HepG2 [3] = assay: as above
U2OS [4] = assay: as above
Vero E6 [5] = assay: as above
Caco-2 [6] = assay: relative viability EC50 (midpoint between 100% and the lowest measured viability); higher = less toxic
Calu-3 [7] = assay: as above
HepG2 [8] = assay: as above
U2OS [9] = assay: as above
Vero E6 [10] = assay: as above
Caco-2 [11] = assay: drug sensitivity score (DSS) for viability; higher = more toxic; extreme values may be limits of the assay
Calu-3 [12] = assay: as above
HepG2 [13] = assay: as above
U2OS [14] = assay: as above
Vero E6 [15] = assay: as above

SMILES	cell viability (Caco-2 [1]; 1 nM)	cell viability (Caco-2 [1]; 10 nM)	cell viability (Caco-2 [1]; 100 nM)	cell viability (Caco-2 [1]; 1000 nM)	cell viability (Caco-2 [1]; 10000 nM)	cell viability (Calu-3 [2]; 1 nM)	cell viability (Calu-3 [2]; 10 nM)	cell viability (Calu-3 [2]; 100 nM)	cell viability (Calu-3 [2]; 1000 nM)	cell viability (Calu-3 [2]; 10000 nM)	cell viability (HepG2 [3]; 1 nM)	cell viability (HepG2 [3]; 10 nM)	cell viability (HepG2 [3]; 100 nM)	cell viability (HepG2 [3]; 1000 nM)	cell viability (HepG2 [3]; 10000 nM)	cell viability (U2OS [4]; 1 nM)	cell viability (U2OS [4]; 10 nM)	cell viability (U2OS [4]; 100 nM)	cell viability (U2OS [4]; 1000 nM)	cell viability (U2OS [4]; 10000 nM)	cell viability (Vero E6 [5]; 1 nM)	cell viability (Vero E6 [5]; 10 nM)	cell viability (Vero E6 [5]; 100 nM)	cell viability (Vero E6 [5]; 1000 nM)	cell viability (Vero E6 [5]; 10000 nM)	relative viability EC50 (Caco-2 [6])	relative viability EC50 (Calu-3 [7])	relative viability EC50 (HepG2 [8])	relative viability EC50 (U2OS [9])	relative viability EC50 (Vero E6 [10])	drug sensitivity score (Caco-2 [11])	drug sensitivity score (Calu-3 [12])	drug sensitivity score (HepG2 [13])	drug sensitivity score (U2OS [14])	drug sensitivity score (Vero E6 [15])
O=C(O)c1cc(C(=O)O)c(C(=O)N(Cc2cccc(Oc3ccccc3)c2)[C@H]2CCCc3ccccc32)cc1C(=O)O	106%	99.1%	90.4%	99.8%	103%	102%	98.8%	103%	104%	106%	98.5%	106%	102%	107%	98.4%	102%	94.4%	99.4%	91.3%	109%	98.2%	102%	96.9%	98.9%	102%	> 10 µM	> 10 µM	> 10 µM	> 10 µM	> 10 µM	0	0	0	0	0
CCOc1ccc(-n2c([C@@H](C)N(Cc3cccnc3)C(=O)Cc3ccc(F)c(C(F)(F)F)c3)nc3ncccc3c2=O)cc1 (racemic)	103%	97.6%	99.3%	99.9%	90%	93.8%	91%	92.8%	95.2%	88.4%	105%	100%	97.9%	108%	93.7%	104%	96%	96.2%	99.2%	95.9%	96%	97.2%	98.6%	103%	105%	> 10 µM	> 10 µM	> 10 µM	> 10 µM	> 10 µM	0	0	0	0	0
O=C1CC2(CCCC2)CC(=O)N1CCCCNC[C@H]1COc2ccccc2O1 (racemic)	97.8%	98.2%	93.8%	98.3%	86%	96.9%	103%	96.9%	94.2%	85.3%	99%	112%	106%	101%	110%	104%	102%	101%	104%	97.8%	103%	101%	101%	97%	98.6%	> 10 µM	> 10 µM	> 10 µM	> 10 µM	> 10 µM	0.3	0.3	0	0	0
